For data set [1], the target named is T1, Androgen receptor (Mus musculus, UniProt P19091).
T1 sequence (P19091 whole entry): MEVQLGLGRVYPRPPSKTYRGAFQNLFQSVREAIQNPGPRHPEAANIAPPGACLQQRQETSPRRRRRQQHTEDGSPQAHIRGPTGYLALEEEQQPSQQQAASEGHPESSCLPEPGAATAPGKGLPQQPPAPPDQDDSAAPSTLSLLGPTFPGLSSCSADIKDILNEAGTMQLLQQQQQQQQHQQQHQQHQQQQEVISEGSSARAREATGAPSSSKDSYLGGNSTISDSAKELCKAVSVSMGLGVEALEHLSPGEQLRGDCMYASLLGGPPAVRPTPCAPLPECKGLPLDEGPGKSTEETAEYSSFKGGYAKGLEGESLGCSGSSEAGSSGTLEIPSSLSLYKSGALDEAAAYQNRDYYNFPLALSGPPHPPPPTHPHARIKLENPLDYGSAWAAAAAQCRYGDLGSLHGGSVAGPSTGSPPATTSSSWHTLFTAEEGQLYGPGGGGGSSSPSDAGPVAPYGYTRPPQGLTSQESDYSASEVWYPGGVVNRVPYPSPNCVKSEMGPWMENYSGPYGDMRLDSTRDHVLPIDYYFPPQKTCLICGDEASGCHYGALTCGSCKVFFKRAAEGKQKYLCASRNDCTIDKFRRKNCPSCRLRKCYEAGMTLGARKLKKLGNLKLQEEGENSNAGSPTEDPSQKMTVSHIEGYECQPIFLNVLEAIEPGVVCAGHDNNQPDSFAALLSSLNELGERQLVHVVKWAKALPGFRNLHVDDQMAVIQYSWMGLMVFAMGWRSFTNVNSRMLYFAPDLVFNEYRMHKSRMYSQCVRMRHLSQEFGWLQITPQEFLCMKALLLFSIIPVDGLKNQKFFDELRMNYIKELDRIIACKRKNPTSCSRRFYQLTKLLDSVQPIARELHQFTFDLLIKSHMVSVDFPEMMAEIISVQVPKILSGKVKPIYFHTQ
Nature of the data set: Agonist activity at androgen receptor in mouse C2C12 cells by receptor transactivation assay. Format: functional, cell-based.

Data set [2] has as its system Rattus norvegicus. The experiment in a line: Effect on […] in castrated rat at 0.3 mg/kg, sc after 14 days relative to intact rat. In kind it is functional. Conditions: route subcutaneous.
The subject of data set [3] is Rattus norvegicus. Nature of the data set: Effect on levator ani muscle weight in castrated rat at 0.3 mg/kg, sc after 14 days relative to intact rat. As to conditions: route subcutaneous. In kind it is functional.
The target of data set [4] is T2, Androgen receptor (Homo sapiens, UniProt P10275).
T2 sequence (P10275 whole entry): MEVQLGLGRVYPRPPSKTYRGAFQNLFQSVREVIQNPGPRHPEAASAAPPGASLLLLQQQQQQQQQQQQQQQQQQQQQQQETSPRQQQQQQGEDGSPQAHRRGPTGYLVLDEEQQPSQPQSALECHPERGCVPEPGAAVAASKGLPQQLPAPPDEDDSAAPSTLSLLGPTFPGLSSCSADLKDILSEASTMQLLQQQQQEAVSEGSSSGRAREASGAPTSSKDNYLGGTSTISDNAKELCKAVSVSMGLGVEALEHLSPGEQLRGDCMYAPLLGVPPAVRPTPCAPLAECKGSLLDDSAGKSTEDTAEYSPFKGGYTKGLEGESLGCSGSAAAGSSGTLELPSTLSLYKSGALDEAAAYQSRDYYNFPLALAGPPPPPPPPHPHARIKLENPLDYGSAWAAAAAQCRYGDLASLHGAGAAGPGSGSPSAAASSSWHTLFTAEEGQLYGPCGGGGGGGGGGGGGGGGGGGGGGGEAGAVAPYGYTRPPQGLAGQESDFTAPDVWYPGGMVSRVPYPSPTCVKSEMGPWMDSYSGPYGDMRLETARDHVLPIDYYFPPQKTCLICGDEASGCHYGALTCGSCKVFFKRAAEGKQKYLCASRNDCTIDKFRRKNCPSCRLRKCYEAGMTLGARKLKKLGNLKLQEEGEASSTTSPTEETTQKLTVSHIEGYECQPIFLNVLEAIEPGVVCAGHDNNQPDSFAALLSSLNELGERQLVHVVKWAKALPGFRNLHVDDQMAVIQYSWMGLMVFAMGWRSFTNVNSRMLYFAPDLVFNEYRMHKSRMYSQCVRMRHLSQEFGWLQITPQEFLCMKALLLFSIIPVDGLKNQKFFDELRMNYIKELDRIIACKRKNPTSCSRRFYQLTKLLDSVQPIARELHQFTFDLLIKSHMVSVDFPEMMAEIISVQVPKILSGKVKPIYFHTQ
The experiment in a line: Displacement of [3H]DHT from human androgen receptor in MDA453 cells. Format: cell-based. In general terms: Loss of bound radioactivity is the signal in a displacement assay; it reports binding, not function.

Data set [5] in a line: Clearance in rat at 5 mg/kg, iv or 10 mg/kg, po. Format: ADME, organism-based. As to conditions: in vivo.
Data set [6] is described as follows: Half life in rat at 5 mg/kg, iv or 10 mg/kg, po. As to conditions: in vivo. Format: ADME, organism-based.
Data set [7] in a line: Cmax in rat at 5 mg/kg, iv or 10 mg/kg, po. Format: ADME, organism-based. Conditions: in vivo.
Data set [8] can be described thus: Oral bioavailability in rat at 10 mg/kg. Format: ADME, organism-based. As to conditions: in vivo.
Data set [9] concerns Rattus norvegicus. Nature of the data set: Effect on […] in castrated rat at 10 mg/kg, po after 14 days relative to intact rat. Format: functional.
Data set [10] relates to Rattus norvegicus. The experiment in a line: Effect on levator ani muscle weight in castrated rat at 10 mg/kg, po after 14 days relative to intact rat. In kind it is functional.
Data set [11] deals with T1, Androgen receptor.
Description: Antagonist activity at androgen receptor in mouse C2C12 cells by receptor transactivation assay

From ChEMBL document CHEMBL1149563 (Bioorg Med Chem Lett, 2007) come the findings set out here.

Molecules are shown by their SMILES. Bounds are passed on as bounds.

For `CCC(=O)O[C@H]1CC[C@H]2[C@@H]3CCC4=CC(=O)CC[C@]4(C)[C@H]3CC[C@]12C` [TESTOSTERONE PROPIONATE], a half-maximal response at Androgen receptor [1] (EC50) required 2.8 nM. In addition, the Activity in the data set on Rattus norvegicus [2] and with Rattus norvegicus [3] was 70% each time. On Androgen receptor [4], this compound displayed a Ki of 0.25 nM.
As to `Cc1c(N2C(=O)[C@@H]3[C@H](O)CCN3S2(=O)=O)ccc(C#N)c1Cl`, the clearance in data set [5] was 12.8 mL/min/kg. On Androgen receptor [1], this compound showed an EC50 of 11.9 nM. Further, in data set [6], the half-life is 54 min. The compound also displayed a Cmax in data set [7] of 8.4 µM. This compound also had a bioavailability in data set [8] of 53%. Also, the Activity worked out at 10% in the data set on Rattus norvegicus [9] and 70% in the data set with Rattus norvegicus [10]. At Androgen receptor [4], the Ki came out at 0.45 nM.
With `Cc1c(N2C(=O)[C@]3(C)[C@H](O)CCN3S2(=O)=O)ccc(C#N)c1Cl`, the EC50 at Androgen receptor [1] was determined as 1250 nM. Moreover, at Androgen receptor [4], the Ki was found to be 8.2 nM.
With `Cc1c(N2C[C@@H]3[C@H](O)CCN3S2(=O)=O)ccc(C#N)c1Cl`, the response at Androgen receptor [1] was half-maximal at 7730 nM (EC50). The compound further gave a Ki at Androgen receptor [4] of 14 nM.
With `COC(=O)[C@@H]1[C@H](O)CCN1S(=O)(=O)c1ccc(C#N)c(Cl)c1C`, at Androgen receptor [1], the EC50 is greater than 3000 nM. The IC50 at Androgen receptor [11] stood at 278 nM. The compound further came in with a Ki at Androgen receptor [4] of 36 nM.
`Cc1c(NS(=O)(=O)N2CC[C@@H](O)[C@H]2C(=O)O)ccc(C#N)c1Cl` displayed an EC50 on Androgen receptor [1] of 2.8 nM.
Same read-out and setting: the figure for `N#Cc1ccc(N2C(=O)[C@@H]3[C@H](O)CCN3C2=O)c2ccccc12` is 2.3 nM.
The compound `Cc1c(N2C[C@@H]3[C@@H](O)CCN3S2(=O)=O)ccc(C#N)c1Cl` came in with a Ki at Androgen receptor [4] of 189 nM.
Regarding `Cc1c(N2C(=O)[C@@H]3[C@@H](O)CCN3S2(=O)=O)ccc(C#N)c1Cl`, the EC50 on Androgen receptor [1] amounted to 2960 nM. The same compound registered a Ki on Androgen receptor [4] of 29 nM.
Compound `Cc1c(N2C(=O)[C@@H]3C[C@H](O)CN3S2(=O)=O)ccc(C#N)c1Cl` displayed an EC50 on Androgen receptor [1] of 3520 nM. In addition, the inhibition constant (Ki) on Androgen receptor [4] came to 44 nM.
For `Cc1c(N2C(C)[C@@H]3[C@@H](O)CCN3S2(=O)=O)ccc(C#N)c1Cl` (stereo not given in full) the same measures were 8960 nM and 20 nM.
Compound `Cc1c(N2C(=O)[C@@H]3[C@H](O)CCN3C2=O)ccc(C#N)c1Cl` registered an EC50 at Androgen receptor [1] of 0.44 nM.
At Androgen receptor [1], `COC(=O)[C@@H]1[C@H](O)CCN1S(=O)(=O)Nc1ccc(C#N)c(Cl)c1C` came in with an EC50 of 7460 nM.

By EC50 is commonly meant the concentration giving half of the maximal effect. Low values mean a more potent agent, high ones a less potent agent. What is called Ki is the equilibrium dissociation constant of an inhibitor or competing ligand from its target. A word on the half-life: it is the time in which the quantity being followed falls by half. A high value points to slow loss. The term Cmax denotes the peak of the concentration-time curve. As a reminder, the bioavailability is the share of a dose that reaches the circulation, judged against a reference dose that is usually intravenous. A low value points to little systemic uptake. A word on the IC50: it is the concentration at which inhibition is half-maximal. A low value points to higher potency.
